Laboratory results reported in US20120122860A1, “SOLID FORMS OF SULFONAMIDES AND AMINO ACIDS” (Plexxikon, Inc., priority 2009, published 2012).
pIC50: −log10 of the molar value.

How the values were obtained:
C-Raf = C-Raf (Homo sapiens, UniProt P04049); assay: Kinase activity assay, C-Raf
Kit = Kit (Homo sapiens, UniProt P10721); assay: Kinase activity assay, Kit
Src = Src (Homo sapiens, UniProt P12931); assay: Kinase activity assay, Src
B-Raf = B-Raf (Homo sapiens, UniProt P15056); assay: Kinase activity assay, B-Raf; format: biochemical; settings: read-out: activity toward kinase B-Raf, IC50
B-Raf V600E = B-Raf V600E (Homo sapiens, UniProt P15056, V600E); assay: Kinase activity assay, B-Raf V600E; format: biochemical; settings: read-out: activity toward kinase B-Raf V600E, IC50
Kdr = Kdr (Homo sapiens, UniProt P35968); assay: Kinase activity assay, Kdr
Fms = Fms (Homo sapiens, UniProt P07333); assay: Kinase activity assay, Fms

Measured: pIC50

Sequence of Fms (P07333 20-972): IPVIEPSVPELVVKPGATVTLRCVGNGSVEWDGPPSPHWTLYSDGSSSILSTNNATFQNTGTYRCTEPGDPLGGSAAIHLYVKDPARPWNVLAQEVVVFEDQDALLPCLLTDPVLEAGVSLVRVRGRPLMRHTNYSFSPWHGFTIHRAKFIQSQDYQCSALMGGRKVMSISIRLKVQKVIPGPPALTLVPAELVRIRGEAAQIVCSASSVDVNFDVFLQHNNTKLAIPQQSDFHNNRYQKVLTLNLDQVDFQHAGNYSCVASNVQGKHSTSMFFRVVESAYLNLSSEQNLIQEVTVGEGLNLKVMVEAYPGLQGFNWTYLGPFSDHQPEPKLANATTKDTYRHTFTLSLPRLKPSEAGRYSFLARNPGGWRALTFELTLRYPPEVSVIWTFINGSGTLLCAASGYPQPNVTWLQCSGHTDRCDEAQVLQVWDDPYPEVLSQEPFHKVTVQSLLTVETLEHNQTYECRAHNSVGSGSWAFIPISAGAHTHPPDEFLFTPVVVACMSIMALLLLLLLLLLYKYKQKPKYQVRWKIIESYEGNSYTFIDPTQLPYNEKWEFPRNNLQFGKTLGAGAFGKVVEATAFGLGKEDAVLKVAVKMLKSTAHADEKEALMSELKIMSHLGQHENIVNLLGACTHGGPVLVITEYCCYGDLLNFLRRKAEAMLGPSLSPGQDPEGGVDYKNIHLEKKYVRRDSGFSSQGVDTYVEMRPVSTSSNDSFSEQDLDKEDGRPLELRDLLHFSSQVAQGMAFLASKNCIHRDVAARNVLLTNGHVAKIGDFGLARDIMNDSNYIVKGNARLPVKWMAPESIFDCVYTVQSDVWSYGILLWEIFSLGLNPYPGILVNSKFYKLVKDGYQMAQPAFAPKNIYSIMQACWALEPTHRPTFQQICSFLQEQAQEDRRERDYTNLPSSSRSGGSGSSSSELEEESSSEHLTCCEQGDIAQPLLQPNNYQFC
Sequence of Kit (P10721 26-976): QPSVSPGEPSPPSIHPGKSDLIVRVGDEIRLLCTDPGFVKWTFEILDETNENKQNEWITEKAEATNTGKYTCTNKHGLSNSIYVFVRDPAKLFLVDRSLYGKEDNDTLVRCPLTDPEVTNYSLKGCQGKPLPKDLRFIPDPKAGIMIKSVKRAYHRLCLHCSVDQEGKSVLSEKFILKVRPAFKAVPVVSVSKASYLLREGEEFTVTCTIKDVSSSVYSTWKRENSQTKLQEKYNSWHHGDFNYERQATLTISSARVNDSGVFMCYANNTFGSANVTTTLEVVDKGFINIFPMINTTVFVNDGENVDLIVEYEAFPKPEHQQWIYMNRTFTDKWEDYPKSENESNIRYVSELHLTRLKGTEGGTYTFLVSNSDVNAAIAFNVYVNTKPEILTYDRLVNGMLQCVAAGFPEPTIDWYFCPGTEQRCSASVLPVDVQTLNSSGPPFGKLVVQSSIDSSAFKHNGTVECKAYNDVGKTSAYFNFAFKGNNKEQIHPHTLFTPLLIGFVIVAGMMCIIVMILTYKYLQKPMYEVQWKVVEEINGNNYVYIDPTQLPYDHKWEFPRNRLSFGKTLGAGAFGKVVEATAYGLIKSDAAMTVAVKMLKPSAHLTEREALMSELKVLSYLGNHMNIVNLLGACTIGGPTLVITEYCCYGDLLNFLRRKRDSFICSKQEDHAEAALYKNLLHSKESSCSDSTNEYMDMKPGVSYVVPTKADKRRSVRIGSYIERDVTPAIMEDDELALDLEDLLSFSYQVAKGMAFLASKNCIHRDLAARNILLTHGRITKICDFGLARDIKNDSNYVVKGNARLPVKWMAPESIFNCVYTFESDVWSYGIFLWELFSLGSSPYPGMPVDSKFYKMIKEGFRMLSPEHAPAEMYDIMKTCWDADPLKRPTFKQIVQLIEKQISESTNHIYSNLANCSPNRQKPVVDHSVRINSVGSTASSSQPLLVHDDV
Sequence of B-Raf V600E (P15056 whole entry V600E): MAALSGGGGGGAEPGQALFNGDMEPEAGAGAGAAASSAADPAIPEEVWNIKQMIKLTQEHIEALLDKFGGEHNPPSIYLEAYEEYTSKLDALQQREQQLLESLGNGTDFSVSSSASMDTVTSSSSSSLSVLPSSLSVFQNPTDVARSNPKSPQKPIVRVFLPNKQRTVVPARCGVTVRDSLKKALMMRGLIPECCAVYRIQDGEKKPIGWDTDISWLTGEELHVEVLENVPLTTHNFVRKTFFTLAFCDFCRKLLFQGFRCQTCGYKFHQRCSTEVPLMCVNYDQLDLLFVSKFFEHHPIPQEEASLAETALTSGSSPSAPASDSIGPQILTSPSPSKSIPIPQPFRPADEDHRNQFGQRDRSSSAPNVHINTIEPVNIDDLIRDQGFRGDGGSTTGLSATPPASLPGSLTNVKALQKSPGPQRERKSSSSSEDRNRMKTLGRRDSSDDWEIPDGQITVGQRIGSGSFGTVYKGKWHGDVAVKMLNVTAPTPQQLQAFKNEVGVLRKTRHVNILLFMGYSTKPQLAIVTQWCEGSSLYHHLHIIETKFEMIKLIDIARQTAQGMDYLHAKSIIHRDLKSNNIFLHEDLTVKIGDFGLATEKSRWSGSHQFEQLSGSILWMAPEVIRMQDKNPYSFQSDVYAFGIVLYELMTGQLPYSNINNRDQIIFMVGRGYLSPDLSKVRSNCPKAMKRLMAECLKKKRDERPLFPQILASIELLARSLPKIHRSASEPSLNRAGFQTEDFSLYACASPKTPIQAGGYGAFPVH
Sequence of Kdr (P35968 20-1356): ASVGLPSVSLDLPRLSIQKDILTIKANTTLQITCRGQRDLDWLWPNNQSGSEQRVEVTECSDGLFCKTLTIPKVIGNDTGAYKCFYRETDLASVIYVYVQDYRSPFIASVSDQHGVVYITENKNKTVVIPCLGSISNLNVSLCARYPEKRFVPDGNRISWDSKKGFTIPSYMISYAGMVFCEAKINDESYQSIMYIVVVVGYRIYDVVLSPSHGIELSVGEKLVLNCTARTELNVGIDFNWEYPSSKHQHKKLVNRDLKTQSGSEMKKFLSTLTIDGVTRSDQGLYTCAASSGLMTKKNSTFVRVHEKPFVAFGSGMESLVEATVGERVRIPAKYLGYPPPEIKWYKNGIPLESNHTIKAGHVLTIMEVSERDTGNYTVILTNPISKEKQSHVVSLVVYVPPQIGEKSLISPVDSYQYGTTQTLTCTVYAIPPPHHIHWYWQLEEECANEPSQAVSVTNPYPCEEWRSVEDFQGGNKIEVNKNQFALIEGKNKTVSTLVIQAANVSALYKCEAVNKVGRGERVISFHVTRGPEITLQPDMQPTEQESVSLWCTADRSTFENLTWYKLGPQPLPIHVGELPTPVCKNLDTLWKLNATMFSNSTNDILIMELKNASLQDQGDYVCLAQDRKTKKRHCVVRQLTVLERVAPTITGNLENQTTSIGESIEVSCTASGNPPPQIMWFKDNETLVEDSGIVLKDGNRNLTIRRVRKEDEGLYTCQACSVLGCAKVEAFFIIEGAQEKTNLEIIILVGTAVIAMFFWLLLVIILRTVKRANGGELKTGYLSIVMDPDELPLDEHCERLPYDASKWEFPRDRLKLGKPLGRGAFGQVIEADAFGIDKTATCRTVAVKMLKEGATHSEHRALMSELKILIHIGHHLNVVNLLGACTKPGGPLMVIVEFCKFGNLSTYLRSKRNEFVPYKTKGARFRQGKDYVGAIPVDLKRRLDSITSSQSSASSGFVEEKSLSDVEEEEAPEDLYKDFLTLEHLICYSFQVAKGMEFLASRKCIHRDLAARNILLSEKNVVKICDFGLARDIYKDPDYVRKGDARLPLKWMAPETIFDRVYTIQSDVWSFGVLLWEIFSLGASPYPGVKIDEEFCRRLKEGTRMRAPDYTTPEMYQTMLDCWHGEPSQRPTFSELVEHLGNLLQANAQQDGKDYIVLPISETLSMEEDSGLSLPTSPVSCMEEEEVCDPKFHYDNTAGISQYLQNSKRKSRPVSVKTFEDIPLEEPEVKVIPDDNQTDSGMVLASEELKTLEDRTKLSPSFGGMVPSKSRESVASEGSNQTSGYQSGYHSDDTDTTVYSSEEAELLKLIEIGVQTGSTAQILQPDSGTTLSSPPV
Sequence of Src (P12931 whole entry): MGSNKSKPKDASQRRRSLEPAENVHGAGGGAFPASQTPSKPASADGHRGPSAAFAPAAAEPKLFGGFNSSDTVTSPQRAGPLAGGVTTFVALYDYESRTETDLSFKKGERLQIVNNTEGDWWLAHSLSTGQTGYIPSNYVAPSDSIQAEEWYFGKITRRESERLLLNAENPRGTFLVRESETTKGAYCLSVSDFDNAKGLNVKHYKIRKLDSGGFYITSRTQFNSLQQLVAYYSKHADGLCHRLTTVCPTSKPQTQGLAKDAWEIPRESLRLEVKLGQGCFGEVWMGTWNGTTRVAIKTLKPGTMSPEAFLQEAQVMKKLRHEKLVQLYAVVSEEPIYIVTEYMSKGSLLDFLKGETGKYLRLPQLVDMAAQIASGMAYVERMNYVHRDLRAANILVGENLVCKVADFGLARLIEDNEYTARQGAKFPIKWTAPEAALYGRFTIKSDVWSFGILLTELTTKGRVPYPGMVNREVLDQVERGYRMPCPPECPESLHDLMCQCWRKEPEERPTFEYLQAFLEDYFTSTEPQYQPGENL
Sequence of B-Raf (P15056 whole entry): as the sequence (P15056 whole entry V600E) above, with E600V counted along it

COc1ccnc2[nH]cc(C(=O)c3c(F)ccc(NS(=O)(=O)c4ccc(F)cc4F)c3F)c12 [P-2032, N-[2,4-Difluoro-3-(4-methoxy-1H-pyrrolo[2,3-b]pyridine-3-carbonyl)-phenyl]-2,4-difluoro-benzenesulfonamide]
not listed: Fms
≥ 5.00: all other assays above

N#Cc1cnc2[nH]cc(C(=O)c3cccc(NS(=O)(=O)c4ccc(F)cc4F)c3F)c2c1 [P-2055, N-[3-(5-Cyano-1H-pyrrolo[2,3-b]pyridine-3-carbonyl)-2-fluoro-phenyl]-2,4-difluoro-benzenesulfonamide]
not listed: Fms
≥ 5.00: all other assays above

O=C(c1cc(NS(=O)(=O)c2ccc(Cl)cc2)ccc1F)c1c[nH]c2ncc(Cl)cc12 [P-2106, 4-Chloro-N-[3-(5-chloro-1H-pyrrolo[2,3-b]pyridine-3-carbonyl)-4-fluoro-phenyl]-benzenesulfonamide]
≥ 5.00: Kit | B-Raf | Kdr | Fms

O=C(c1cc(NS(=O)(=O)c2ccc(F)cc2)ccc1F)c1c[nH]c2ncc(Cl)cc12 [P-2107, N-[3-(5-Chloro-1H-pyrrolo[2,3-b]pyridine-3-carbonyl)-4-fluoro-phenyl]-4-fluoro-benzenesulfonamide]
≥ 5.00: Kit | Kdr | Fms

O=C(c1cc(NS(=O)(=O)c2cccc(C(F)(F)F)c2)ccc1F)c1c[nH]c2ncc(Cl)cc12 [P-2108, N-[3-(5-Chloro-1H-pyrrolo[2,3-b]pyridine-3-carbonyl)-4-fluoro-phenyl]-3-trifluoromethyl-benzenesulfonamide]
not listed: C-Raf | Src
≥ 5.00: all other assays above

O=C(c1cc(NS(=O)(=O)c2cccc(OC(F)(F)F)c2)ccc1F)c1c[nH]c2ncc(Cl)cc12 [P-2110, N-[3-(5-Chloro-1H-pyrrolo[2,3-b]pyridine-3-carbonyl)-4-fluoro-phenyl]-3-trifluoromethoxy-benzenesulfonamide]
not listed: C-Raf | Src
≥ 5.00: all other assays above

O=C(c1cc(NS(=O)(=O)c2ccc(C(F)(F)F)cc2)ccc1F)c1c[nH]c2ncc(Cl)cc12 [P-2112, N-[3-(5-Chloro-1H-pyrrolo[2,3-b]pyridine-3-carbonyl)-4-fluoro-phenyl]-4-trifluoromethyl-benzenesulfonamide]
≥ 5.00: Kit | B-Raf | Fms

O=C(c1cccc(NS(=O)(=O)c2ccc(F)cc2)c1)c1c[nH]c2ncc(Cl)cc12 [P-2121, N-[3-(5-Chloro-1H-pyrrolo[2,3-b]pyridine-3-carbonyl)-phenyl]-4-fluoro-benzenesulfonamide]
≥ 5.00: Kit | Kdr | Fms

O=C(c1cccc(NS(=O)(=O)c2cccc(C(F)(F)F)c2)c1)c1c[nH]c2ncc(Cl)cc12 [P-2122, N-[3-(5-Chloro-1H-pyrrolo[2,3-b]pyridine-3-carbonyl)-phenyl]-3-trifluoromethyl-benzenesulfonamide]
≥ 5.00: Kit | Kdr | Fms

O=C(c1cccc(NS(=O)(=O)c2ccc(OC(F)(F)F)cc2)c1)c1c[nH]c2ncc(Cl)cc12 [P-2123, N-[3-(5-Chloro-1H-pyrrolo[2,3-b]pyridine-3-carbonyl)-phenyl]-4-trifluoromethoxy-benzenesulfonamide]
≥ 5.00: Kit | B-Raf | Fms

O=C(c1cccc(NS(=O)(=O)c2cccc(OC(F)(F)F)c2)c1)c1c[nH]c2ncc(Cl)cc12 [P-2124, N-[3-(5-Chloro-1H-pyrrolo[2,3-b]pyridine-3-carbonyl)-phenyl]-3-trifluoromethoxy-benzenesulfonamide]
≥ 5.00: Kit | Kdr | Fms

O=C(c1cccc(NS(=O)(=O)c2cccc(Cl)c2)c1)c1c[nH]c2ncc(Cl)cc12 [P-2125, 3-Chloro-N-[3-(5-chloro-1H-pyrrolo[2,3-b]pyridine-3-carbonyl)-phenyl]-benzenesulfonamide]
≥ 5.00: Kit | Kdr | Fms

O=C(c1cccc(NS(=O)(=O)c2cccc(F)c2)c1)c1c[nH]c2ncc(Cl)cc12 [P-2127, N-[3-(5-Chloro-1H-pyrrolo[2,3-b]pyridine-3-carbonyl)-phenyl]-3-fluoro-benzenesulfonamide]
not listed: C-Raf | Src
≥ 5.00: all other assays above

O=C(c1cccc(NS(=O)(=O)c2ccc(Cl)cc2)c1)c1c[nH]c2ncc(Cl)cc12 [P-2128, 4-Chloro-N-[3-(5-chloro-1H-pyrrolo[2,3-b]pyridine-3-carbonyl)-phenyl]-benzenesulfonamide]
≥ 5.00: Kit | B-Raf | Kdr | Fms

CCCS(=O)(=O)Nc1ccc(F)c(C(=O)c2c[nH]c3ncc(-c4cc(C)nn4C)cc23)c1F [P-2195, Propane-1-sulfonic acid {3-[5-(2,5-dimethyl-2H-pyrazol-3-yl)-1H-pyrrolo[2,3-b]pyridine-3-carbonyl]-2,4-difluoro-phenyl}-amide]
not listed: C-Raf | Fms
≥ 5.00: all other assays above

CCCS(=O)(=O)Nc1ccc(F)c(C(=O)c2c[nH]c3ncc(C#CCN(CC)CC)cc23)c1F [P-2241, Propane-1-sulfonic acid {3-[5-(3-diethylamino-prop-1-ynyl)-1H-pyrrolo[2,3-b]pyridine-3-carbonyl]-2,4-difluoro-phenyl}-amide]
≥ 5.00: Kit | Kdr | Fms

CCCC(C)S(=O)(=O)Nc1ccc(F)c(C(=O)c2c[nH]c3ncc(Cl)cc23)c1F (stereo not shown) [P-2311, Pentane-2-sulfonic acid [3-(5-chloro-1H-pyrrolo[2,3-b]pyridine-3-carbonyl)-2,4-difluoro-phenyl]-amide]
not listed: B-Raf | Fms
≥ 5.00: all other assays above

O=C(c1c(F)ccc(NS(=O)(=O)CCC(F)(F)F)c1F)c1c[nH]c2ncc(-c3ccc(Cl)cc3)cc12 [P-2325, 3,3,3-Trifluoro-propane-1-sulfonic acid {3-[5-(4-chloro-phenyl)-1H-pyrrolo[2,3-b]pyridine-3-carbonyl]-2,4-difluoro-phenyl}-amide]
≥ 5.00: Kit | Src

O=C(c1c(F)ccc(NS(=O)(=O)C2CC2)c1F)c1c[nH]c2ncc(Br)cc12 [P-2348, Cyclopropanesulfonic acid [3-(5-bromo-1H-pyrrolo[2,3-b]pyridine-3-carbonyl)-2,4-difluoro-phenyl]-amide]
≥ 5.00: Kit | B-Raf V600E | Kdr | Fms

CN(C)S(=O)(=O)Nc1cccc(C(=O)c2c[nH]c3ncc(-c4ccc(Cl)cc4)cc23)c1F [P-2423, N,N-dimethylamino-sulfonic acid {3-[5-(4-chloro-phenyl)-1H-pyrrolo[2,3-b]pyridine-3-carbonyl]-2-fluoro-phenyl}-amide]
≥ 5.00: B-Raf V600E | Kdr | Fms

O=C(c1cccc(NS(=O)(=O)N2CCCC2)c1F)c1c[nH]c2ncc(-c3ccc(Cl)cc3)cc12 [P-2425, Pyrrolidine-1-sulfonic acid {3-[5-(4-chloro-phenyl)-1H-pyrrolo[2,3-b]pyridine-3-carbonyl]-2-fluoro-phenyl}-amide]
not listed: Kit | Src
≥ 5.00: all other assays above

CCCCS(=O)(=O)Nc1ccc(F)c(C(=O)c2c[nH]c3ncc(Cl)cc23)c1 [P-2435, Butane-1-sulfonic acid [3-(5-chloro-1H-pyrrolo[2,3-b]pyridine-3-carbonyl)-4-fluoro-phenyl]-amide]
≥ 5.00: Kit | B-Raf V600E | Kdr | Fms

O=C(c1cc(NS(=O)(=O)C2CC2)ccc1F)c1c[nH]c2ncc(Cl)cc12 [P-2436, Cyclopropanesulfonic acid [3-(5-chloro-1H-pyrrolo[2,3-b]pyridine-3-carbonyl)-4-fluoro-phenyl]-amide]
≥ 5.00: Kit | B-Raf V600E | Kdr | Fms

CCCCS(=O)(=O)Nc1ccc(F)c(C(=O)c2c[nH]c3ncccc23)c1 [P-2438, Butane-1-sulfonic acid [4-fluoro-3-(1H-pyrrolo[2,3-b]pyridine-3-carbonyl)-phenyl]-amide]
≥ 5.00: Kit | Kdr | Fms

O=C(c1cc(NS(=O)(=O)C2CC2)ccc1F)c1c[nH]c2ncccc12 [P-2439, Cyclopropanesulfonic acid [4-fluoro-3-(1H-pyrrolo[2,3-b]pyridine-3-carbonyl)-phenyl]-amide]
≥ 5.00: Kdr | Fms

CCCCS(=O)(=O)Nc1cccc(C(=O)c2c[nH]c3ncc(Cl)cc23)c1 [P-2450, Butane-1-sulfonic acid [3-(5-chloro-1H-pyrrolo[2,3-b]pyridine-3-carbonyl)-phenyl]-amide]
≥ 5.00: Kit | B-Raf V600E | Kdr | Fms

O=C(c1cccc(NS(=O)(=O)C2CC2)c1)c1c[nH]c2ncc(Cl)cc12 [P-2451, Cyclopropanesulfonic acid [3-(5-chloro-1H-pyrrolo[2,3-b]pyridine-3-carbonyl)-phenyl]-amide]
≥ 5.00: Kit | Kdr | Fms
